# Results from PubChem BioAssay (NCI).
#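 Five concentrations, 48 hours, 96-well plates. TGI: concentration producing complete growth inhibition.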
# Experiments:
# Assay in all cases: inhibition of tumour cell growth, NCI panel, 48 h
# [1] = test system: 786-0 renal
# [2] = test system: A498 renal
# [3] = test system: ACHN renal
# [4] = test system: BT-549 breast
# [5] = test system: CAKI-1 renal
# [6] = test system: CCRF-CEM leukemia
# [7] = test system: COLO 205 colon
# [8] = test system: EKVX NSCLC
# [9] = test system: HCC-2998 colon
# [10] = test system: HCT-116 colon
# [11] = test system: HCT-15 colon
# [12] = test system: HL-60(TB) leukemia
# [13] = test system: HOP-62 NSCLC
# [14] = test system: HOP-92 NSCLC
# [15] = test system: HS 578T breast
# [16] = test system: HT29 colon
# [17] = test system: IGROV1 ovarian
# [18] = test system: K-562 leukemia
# [19] = test system: KM12 colon
# [20] = test system: LOX IMVI melanoma
# [21] = test system: M14 melanoma
# [22] = test system: MCF7 breast
# [23] = test system: MDA-MB-231 breast
# [24] = test system: MDA-MB-435
# [25] = test system: MOLT-4 leukemia
# [26] = test system: NCI-H226 lung
# [27] = test system: NCI-H23 lung
# [28] = test system: NCI-H460 lung
# [29] = test system: NCI/ADR-RES ovarian
# [30] = test system: OVCAR-4 ovarian
# [31] = test system: OVCAR-8 ovarian
# [32] = test system: PC-3 prostate
# [33] = test system: RPMI-8226 leukemia
# [34] = test system: RXF 393 renal
# [35] = test system: SF-268 CNS
# [36] = test system: SF-295 CNS
# [37] = test system: SF-539 CNS
# [38] = test system: SK-MEL-2 melanoma
# [39] = test system: SK-MEL-28 melanoma
# [40] = test system: SK-MEL-5 melanoma
# [41] = test system: SK-OV-3 ovarian
# [42] = test system: SNB-19 CNS
# [43] = test system: SNB-75 CNS
# [44] = test system: SR leukemia
# [45] = test system: SW-620 colon
# [46] = test system: T-47D breast
# [47] = test system: TK-10 renal
# [48] = test system: U251 CNS
# [49] = test system: UACC-257 melanoma
# [50] = test system: UACC-62 melanoma
# [51] = test system: UO-31 renal
# [52] = test system: A549 NSCLC
# [53] = test system: DU-145 prostate
# [54] = test system: MALME-3M melanoma
# [55] = test system: NCI-H522 lung
# [56] = test system: OVCAR-3 ovarian
# [57] = test system: OVCAR-5 ovarian
# [58] = test system: SN12C renal
compound,measurement,setting,value
COc1ccc(Oc2nc3c(N)cc(C(F)(F)F)cc3nc2-c2ccccc2)cc1,TGI,[1],56.4 µM
same,TGI,[2],55.6 µM
same,TGI,[3],> 100 µM
same,TGI,[4],> 100 µM
same,TGI,[5],44 µM
same,TGI,[6],> 100 µM
same,TGI,[7],25.6 µM
same,TGI,[8],28.9 µM
same,TGI,[9],> 100 µM
same,TGI,[10],> 100 µM
same,TGI,[11],> 100 µM
same,TGI,[12],> 100 µM
same,TGI,[13],49.5 µM
same,TGI,[14],> 100 µM
same,TGI,[15],43 µM
same,TGI,[16],22.8 µM
same,TGI,[17],43.5 µM
same,TGI,[18],> 100 µM
same,TGI,[19],31.6 µM
same,TGI,[20],53.6 µM
same,TGI,[21],41.3 µM
same,TGI,[22],23.8 µM
same,TGI,[23],> 100 µM
same,TGI,[24],> 100 µM
same,TGI,[25],> 100 µM
same,TGI,[26],35.7 µM
same,TGI,[27],> 100 µM
same,TGI,[28],57.8 µM
same,TGI,[29],> 100 µM
same,TGI,[30],> 100 µM
same,TGI,[31],> 100 µM
same,TGI,[32],59.6 µM
same,TGI,[33],> 100 µM
same,TGI,[34],24.9 µM
same,TGI,[35],64.5 µM
same,TGI,[36],41.2 µM
same,TGI,[37],> 100 µM
same,TGI,[38],25.9 µM
same,TGI,[39],> 100 µM
same,TGI,[40],> 100 µM
same,TGI,[41],43.7 µM
same,TGI,[42],> 100 µM
same,TGI,[43],40.6 µM
same,TGI,[44],> 100 µM
same,TGI,[45],> 100 µM
same,TGI,[46],26.9 µM
same,TGI,[47],> 100 µM
same,TGI,[48],> 100 µM
same,TGI,[49],> 100 µM
same,TGI,[50],> 100 µM
same,TGI,[51],> 100 µM
COc1ccc(C=NCCCN=Cc2ccc(OC)cc2O)c(O)c1,TGI,[1],> 100 µM
same,TGI,[2],> 100 µM
same,TGI,[52],> 100 µM
same,TGI,[3],> 100 µM
same,TGI,[4],> 100 µM
same,TGI,[6],> 100 µM
same,TGI,[53],> 100 µM
same,TGI,[8],> 100 µM
same,TGI,[10],> 100 µM
same,TGI,[11],> 100 µM
same,TGI,[12],> 100 µM
same,TGI,[13],> 100 µM
same,TGI,[14],68.8 µM
same,TGI,[15],63.7 µM
same,TGI,[16],> 100 µM
same,TGI,[17],> 100 µM
same,TGI,[18],> 100 µM
same,TGI,[19],> 100 µM
same,TGI,[21],> 100 µM
same,TGI,[54],71.5 µM
same,TGI,[22],> 100 µM
same,TGI,[23],> 100 µM
same,TGI,[24],> 100 µM
same,TGI,[25],> 100 µM
same,TGI,[26],59.3 µM
same,TGI,[27],> 100 µM
same,TGI,[28],> 100 µM
same,TGI,[55],> 100 µM
same,TGI,[56],51.2 µM
same,TGI,[30],> 100 µM
same,TGI,[57],> 100 µM
same,TGI,[31],> 100 µM
same,TGI,[32],> 100 µM
same,TGI,[33],> 100 µM
same,TGI,[34],> 100 µM
same,TGI,[36],54.5 µM
same,TGI,[38],> 100 µM
same,TGI,[39],> 100 µM
same,TGI,[58],90.6 µM
same,TGI,[42],> 100 µM
same,TGI,[43],64.8 µM
same,TGI,[44],> 100 µM
same,TGI,[45],> 100 µM
same,TGI,[47],> 100 µM
same,TGI,[48],> 100 µM
same,TGI,[49],> 100 µM
same,TGI,[50],> 100 µM
same,TGI,[51],> 100 µM
